The text below walks through data of ChEMBL document CHEMBL4219204, “Structure-based design and discovery of potent and selective KDM5 inhibitors” (Bioorg Med Chem Lett, 2018).

By IC50 is commonly meant the concentration needed to halve the response being measured. A higher IC50 goes with a need for much substance.

Data set [1] in a line: Protein binding in mouse plasma. As to conditions: read-out: PPB (converted). The class given is ADME, cell-free.
Data set [2] concerns the target T1, Lysine-specific demethylase 4E (Homo sapiens, UniProt B2RXH2).
T1 sequence (B2RXH2 whole entry): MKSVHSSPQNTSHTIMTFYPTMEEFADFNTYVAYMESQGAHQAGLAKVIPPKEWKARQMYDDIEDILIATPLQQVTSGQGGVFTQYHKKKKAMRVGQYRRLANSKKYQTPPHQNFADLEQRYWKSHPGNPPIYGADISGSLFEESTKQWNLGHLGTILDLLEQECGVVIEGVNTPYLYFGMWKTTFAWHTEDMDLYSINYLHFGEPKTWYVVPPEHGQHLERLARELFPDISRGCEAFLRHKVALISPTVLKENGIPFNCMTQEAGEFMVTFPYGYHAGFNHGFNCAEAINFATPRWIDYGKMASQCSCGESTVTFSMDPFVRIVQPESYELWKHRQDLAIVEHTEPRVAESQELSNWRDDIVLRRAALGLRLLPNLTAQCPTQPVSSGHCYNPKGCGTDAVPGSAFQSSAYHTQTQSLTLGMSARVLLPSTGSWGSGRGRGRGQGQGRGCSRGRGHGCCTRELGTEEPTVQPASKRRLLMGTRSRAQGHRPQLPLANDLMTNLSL
Nature of the data set: Inhibition of KDM4E (unknown origin).

Data set [3] deals with Mus musculus. Nature of the data set: In vivo inhibition of KDM5 in nude mouse xenografted with human MCF7 cells assessed as increase in H3K4me3 level in tumor at 75 mg/kg, po qd for 5 days measured up to 24 hrs post last dose by Western blot analysis. The class given is functional, organism-based. For orientation: A xenograft is tissue or cells of one species grown in another, often human tumour cells in immunodeficient mice.

Data set [4] in a line: Drug uptake in tumor of nude mouse xenografted with human MCF7 cells at 75 mg/kg, po qd for 5 days measured at 1 hr post last dose. The settings on record: in vivo. The class given is ADME, organism-based, Neoplasm.
Data set [5] deals with Mus musculus. Description: In vivo inhibition of KDM5 in nude mouse xenografted with human MCF7 cells assessed as increase in H3K4me3 level in tumor at 75 mg/kg, po qd for 5 days measured at 0.5 hrs post last dose by Western blot analysis relative to control. The class given is functional.
In data set [6] the target is T2, Lysine-specific demethylase 4A (Homo sapiens, UniProt O75164).
T2 sequence (O75164 whole entry): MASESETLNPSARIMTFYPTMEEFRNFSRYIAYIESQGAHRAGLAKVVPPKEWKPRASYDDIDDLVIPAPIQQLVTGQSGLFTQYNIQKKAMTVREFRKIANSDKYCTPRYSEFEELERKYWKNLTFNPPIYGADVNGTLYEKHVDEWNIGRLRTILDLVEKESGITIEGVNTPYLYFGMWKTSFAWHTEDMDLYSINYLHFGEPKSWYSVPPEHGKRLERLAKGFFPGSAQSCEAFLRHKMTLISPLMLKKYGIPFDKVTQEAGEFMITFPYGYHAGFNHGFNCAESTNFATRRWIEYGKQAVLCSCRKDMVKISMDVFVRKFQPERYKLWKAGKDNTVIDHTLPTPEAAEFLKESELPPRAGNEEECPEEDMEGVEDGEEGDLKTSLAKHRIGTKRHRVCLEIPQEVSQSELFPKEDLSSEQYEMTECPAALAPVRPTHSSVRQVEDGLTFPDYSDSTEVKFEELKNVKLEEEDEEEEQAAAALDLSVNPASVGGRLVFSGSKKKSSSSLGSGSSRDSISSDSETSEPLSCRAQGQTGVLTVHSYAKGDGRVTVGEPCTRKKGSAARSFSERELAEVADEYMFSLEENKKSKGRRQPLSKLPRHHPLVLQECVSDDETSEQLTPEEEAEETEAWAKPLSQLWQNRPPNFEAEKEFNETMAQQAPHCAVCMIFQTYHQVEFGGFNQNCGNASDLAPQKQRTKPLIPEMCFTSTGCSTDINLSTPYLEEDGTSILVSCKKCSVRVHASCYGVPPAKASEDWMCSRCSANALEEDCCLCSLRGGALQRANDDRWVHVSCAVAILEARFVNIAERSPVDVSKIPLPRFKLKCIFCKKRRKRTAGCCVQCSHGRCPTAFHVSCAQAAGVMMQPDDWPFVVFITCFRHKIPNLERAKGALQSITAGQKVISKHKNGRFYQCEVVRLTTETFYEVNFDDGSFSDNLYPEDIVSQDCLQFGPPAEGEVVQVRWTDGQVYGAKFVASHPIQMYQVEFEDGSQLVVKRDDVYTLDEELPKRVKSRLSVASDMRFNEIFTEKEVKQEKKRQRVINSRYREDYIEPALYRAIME
Description: Inhibition of KDM4A (unknown origin).

Data set [7] concerns the target ATP-dependent translocase ABCB1 (Homo sapiens, UniProt P08183). Nature of the data set: Inhibition of MDR1 (unknown origin). The class given is ADME.
A short description of data set [8]: Inhibition of CYP450 (unknown origin). As to conditions: human. The data set is classed as ADME.
The target in data set [9] is T3, Lysine-specific demethylase 4B (Homo sapiens, UniProt O94953).
T3 sequence (O94953 whole entry): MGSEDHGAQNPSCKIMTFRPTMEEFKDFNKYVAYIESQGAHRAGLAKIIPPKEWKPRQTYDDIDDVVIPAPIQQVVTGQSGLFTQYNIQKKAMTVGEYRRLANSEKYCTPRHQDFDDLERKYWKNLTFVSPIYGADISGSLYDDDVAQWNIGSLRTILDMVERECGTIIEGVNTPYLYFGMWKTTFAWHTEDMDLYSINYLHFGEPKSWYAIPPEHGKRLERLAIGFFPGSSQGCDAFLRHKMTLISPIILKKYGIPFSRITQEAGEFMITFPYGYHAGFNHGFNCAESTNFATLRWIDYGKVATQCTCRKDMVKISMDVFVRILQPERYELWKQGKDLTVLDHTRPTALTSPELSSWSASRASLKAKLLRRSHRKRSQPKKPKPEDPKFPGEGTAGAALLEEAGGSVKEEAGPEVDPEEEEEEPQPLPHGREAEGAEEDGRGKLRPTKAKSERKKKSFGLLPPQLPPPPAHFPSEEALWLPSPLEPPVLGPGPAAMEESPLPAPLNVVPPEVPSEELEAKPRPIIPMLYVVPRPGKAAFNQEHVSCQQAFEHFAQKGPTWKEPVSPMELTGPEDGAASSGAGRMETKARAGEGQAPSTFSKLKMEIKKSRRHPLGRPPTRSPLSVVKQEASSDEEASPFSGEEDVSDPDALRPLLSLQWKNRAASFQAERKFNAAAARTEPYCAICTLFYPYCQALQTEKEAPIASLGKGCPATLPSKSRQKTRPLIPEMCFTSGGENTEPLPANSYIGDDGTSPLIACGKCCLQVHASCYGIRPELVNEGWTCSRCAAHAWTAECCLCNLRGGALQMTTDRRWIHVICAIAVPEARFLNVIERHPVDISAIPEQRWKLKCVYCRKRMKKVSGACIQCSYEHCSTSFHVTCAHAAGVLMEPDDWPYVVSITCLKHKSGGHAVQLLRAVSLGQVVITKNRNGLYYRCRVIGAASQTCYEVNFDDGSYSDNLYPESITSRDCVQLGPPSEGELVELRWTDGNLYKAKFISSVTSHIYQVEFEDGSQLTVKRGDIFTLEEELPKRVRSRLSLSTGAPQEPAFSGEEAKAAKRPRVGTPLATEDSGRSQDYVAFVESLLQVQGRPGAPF
Nature of the data set: Inhibition of KDM4B (unknown origin).

SMILES strings stand for the structures. The source made the active and inactive calls. No cut-off for these calls is given here.

ATP-dependent translocase ABCB1, sequence (P08183 whole entry): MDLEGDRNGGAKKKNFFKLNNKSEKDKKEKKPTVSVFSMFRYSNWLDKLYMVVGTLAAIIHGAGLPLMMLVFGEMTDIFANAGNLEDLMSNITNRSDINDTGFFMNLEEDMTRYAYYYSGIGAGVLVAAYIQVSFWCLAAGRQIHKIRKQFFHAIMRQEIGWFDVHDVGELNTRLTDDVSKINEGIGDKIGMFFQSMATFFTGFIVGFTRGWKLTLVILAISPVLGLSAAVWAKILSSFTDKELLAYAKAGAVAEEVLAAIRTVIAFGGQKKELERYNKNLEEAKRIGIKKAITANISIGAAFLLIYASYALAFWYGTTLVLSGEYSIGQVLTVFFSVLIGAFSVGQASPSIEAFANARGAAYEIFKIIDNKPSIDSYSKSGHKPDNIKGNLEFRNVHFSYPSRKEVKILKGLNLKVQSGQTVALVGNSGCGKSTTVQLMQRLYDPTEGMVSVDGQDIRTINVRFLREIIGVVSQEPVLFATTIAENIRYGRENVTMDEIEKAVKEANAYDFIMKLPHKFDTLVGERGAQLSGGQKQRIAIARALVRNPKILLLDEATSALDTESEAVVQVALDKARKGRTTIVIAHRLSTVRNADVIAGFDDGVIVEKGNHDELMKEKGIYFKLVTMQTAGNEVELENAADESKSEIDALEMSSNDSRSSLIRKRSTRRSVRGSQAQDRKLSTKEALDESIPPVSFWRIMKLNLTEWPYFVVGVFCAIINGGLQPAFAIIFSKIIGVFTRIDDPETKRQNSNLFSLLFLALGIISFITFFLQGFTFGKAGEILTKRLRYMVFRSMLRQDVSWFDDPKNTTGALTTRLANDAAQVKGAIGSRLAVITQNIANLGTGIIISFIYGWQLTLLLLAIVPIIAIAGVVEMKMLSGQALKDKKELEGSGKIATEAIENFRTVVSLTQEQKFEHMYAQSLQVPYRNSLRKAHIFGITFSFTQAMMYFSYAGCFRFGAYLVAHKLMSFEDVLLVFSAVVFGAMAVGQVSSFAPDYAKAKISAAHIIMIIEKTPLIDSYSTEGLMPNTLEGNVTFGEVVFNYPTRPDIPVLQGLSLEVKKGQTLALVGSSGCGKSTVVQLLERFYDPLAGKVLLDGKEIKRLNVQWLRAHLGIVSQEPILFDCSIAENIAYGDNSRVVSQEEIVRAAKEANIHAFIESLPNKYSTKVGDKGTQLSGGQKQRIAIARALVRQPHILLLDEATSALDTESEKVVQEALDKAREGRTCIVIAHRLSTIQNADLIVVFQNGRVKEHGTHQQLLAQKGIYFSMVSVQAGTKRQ

Take `Cc1cc(Cl)ccc1COc1ccnn1-c1cc(C(=O)O)ccn1`: in data set [1], the fraction unbound was 0.009. In addition, the IC50 in data set [2] is 160 nM; in data set [6], 99 nM; in [9] it was 170 nM. Besides, the inhibition entry in the data set on Mus musculus [3] was “Active”. For the same compound, in data set [4], the Drug uptake result is listed as “Active”. For the same compound, the “fold change (FC)” value in the data set on Mus musculus [5] is given as more than 2. Further, the “inhibition (INH)” value in [7] and in [8] was “Not Active” throughout.
